Reference: patent US10064954B2, “Polymer-cyclodextrin-lipid conjugates” (priority 2015, dated 2018)
Structures can show the parent of a compound that is named as a salt.

How the values were obtained:
[1] = Solubility of marketed Drug Products: cyclodextrin to drug ratio
[2] = type: physicochemical
Protocol: 1% (w/v) of propofol was prepared in a saline based solution with different PEG-carbohydrate conjugates. Table 6 listed the minimum concentration of the conjugates required to solublize propofol as a solubility test reference.

[3] = CD = hydroxypropyl-β-cyclodextrin
[4] = CD = sulfobutyl ether β-cyclodextrin

Molecule	CD/D (mol/mol) [1, 3] [mol/mol]	other results
CN1C(=O)CN=C(c2ccccc2)c2cc(Cl)ccc21 [Diazepam]	18.4	–
CNC(=C[N+](=O)[O-])NCCSCc1ccc(CN(C)C)o1 [Ranitidine HCl]	14.5	–
C[C@@H](c1ncncc1F)[C@](O)(Cn1cncn1)c1ccc(F)cc1F [Voriconazole]	–	CD/D (mol/mol) [1, 4]: 2.5 mol/mol
CCC(C)n1ncn(-c2ccc(N3CCN(c4ccc(OCC5COC(Cn6cncn6)(c6ccc(Cl)cc6Cl)O5)cc4)CC3)cc2)c1=O (stereo not drawn) [Itraconazole]	20.2	–
CC[C@@H]([C@H](C)O)n1ncn(-c2ccc(N3CCN(c4ccc(OC[C@@H]5CO[C@@](Cn6cncn6)(c6ccc(F)cc6F)C5)cc4)CC3)cc2)c1=O [Posaconazole]	–	CD/D (mol/mol) [1, 4]: 6.9 mol/mol
oleoylpropanediaminelactobionate-mPEG12	–	Concentration (% w/v) [2]: 3.0 % w/v
2-hydroxypropyl-β-cyclodextrin	–	Concentration (% w/v) [2]: 30 % w/v
cholesterypropanediaminelactobionate-mPEG12	–	Concentration (% w/v) [2]: 3.5 % w/v
O=C(CCCN1CCC(O)(c2ccc(Cl)cc2)CC1)c1ccc(F)cc1 [Haloperidol]	302.9	–
CCCCCCCCCCNCCN[C@@]1(C)C[C@H](O[C@H]2[C@H](Oc3c4cc5cc3Oc3ccc(cc3Cl)[C@@H](O)[C@@H](NC(=O)[C@@H](CC(C)C)NC)C(=O)N[C@@H](CC(N)=O)C(=O)N[C@H]5C(=O)N[C@H]3C(=O)N[C@H](C(=O)N[C@H](C(=O)O)c5cc(O)c(CNCP(=O)(O)O)c(O)c5-c5cc3ccc5O)[C@H](O)c3ccc(c(Cl)c3)O4)O[C@H](CO)[C@@H](O)[C@@H]2O)O[C@@H](C)[C@H]1O [Telavancin HCl]	12.6	–
CC(C)NCC(O)COc1cccc2ccccc12 (stereo not drawn) [Propranolol]	10.4	–
CN(Cc1cnc2nc(N)nc(N)c2n1)c1ccc(C(=O)N[C@@H](CCC(=O)O)C(=O)O)cc1 [Methotrexate]	18.3	–
